Read-outs that look alike come from different tables or passages of the source.

Data on 35 compounds can be found in patent US20250221966A1, “RXFP1 AGONISTS” (BRISTOL-MYERS SQUIBB COMPANY, priority 2021, published 2025).

The target of this assay is T1, human RXFP1 (Homo sapiens, UniProt Q9HBX9).
T1 construct: expressed in transfected cells
T1 sequence (Q9HBX9 1-757): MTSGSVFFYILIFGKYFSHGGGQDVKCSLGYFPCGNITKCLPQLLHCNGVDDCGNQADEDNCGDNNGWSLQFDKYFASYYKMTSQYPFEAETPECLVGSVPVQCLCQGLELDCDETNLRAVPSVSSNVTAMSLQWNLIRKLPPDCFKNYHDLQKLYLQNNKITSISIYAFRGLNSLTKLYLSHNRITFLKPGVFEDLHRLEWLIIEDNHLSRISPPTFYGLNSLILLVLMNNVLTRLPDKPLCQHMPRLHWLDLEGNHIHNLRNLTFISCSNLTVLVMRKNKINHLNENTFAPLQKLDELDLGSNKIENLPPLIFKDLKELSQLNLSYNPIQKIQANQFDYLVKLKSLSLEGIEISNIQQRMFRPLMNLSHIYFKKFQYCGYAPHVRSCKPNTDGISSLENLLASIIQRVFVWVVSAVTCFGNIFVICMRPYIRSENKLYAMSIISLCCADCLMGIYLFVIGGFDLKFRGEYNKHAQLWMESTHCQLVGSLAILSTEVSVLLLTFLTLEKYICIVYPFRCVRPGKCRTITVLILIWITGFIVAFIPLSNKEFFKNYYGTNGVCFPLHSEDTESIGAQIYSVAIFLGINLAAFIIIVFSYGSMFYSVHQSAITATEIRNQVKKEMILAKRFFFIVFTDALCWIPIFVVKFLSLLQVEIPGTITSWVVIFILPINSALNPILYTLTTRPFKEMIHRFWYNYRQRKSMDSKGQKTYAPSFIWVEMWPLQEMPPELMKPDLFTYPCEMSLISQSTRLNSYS
The experiment in a line: RXFP1 cAMP assay (hRXFP1 HEK293 cAMP assay, HTRF). The format is cell-based. The procedure, abridged: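 In a stable human RXFP1 HEK293 line, compounds acted for 30 min at RT in buffer with 0.5 mM IBMX. HTRF then quantified cellular cAMP.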

Setting [1] is: HEK293 cells stably expressing human RXFP1, 30 min at room temperature, read-out: cAMP hRXFP1 HEK293 Assay EC50.

On to `CNC(=O)c1ccc(F)c(-c2ccc(OC)c(C(=O)N[C@H]3[C@@H](C(=O)Nc4ccc(F)c(C(F)(F)F)c4)[C@H]4CC[C@@H]3C4=C(C)C)c2)c1` [compound 151], for which the EC50 (commonly the concentration needed to bring the measured effect to its halfway point) under setting [1] came out at 0.24 µM.

Regarding `O=C(NC1CCC1)OC(c1ccc(F)c(-c2ccc(OCc3ccccc3)c(C(=O)N[C@@H]3C4CCC(/C4=C/C4CC4)[C@@H]3C(=O)Nc3ccc(F)c(C(F)(F)F)c3)c2)c1)C(F)(F)F` (some centres unmarked) [compound 252], the EC50 under setting [1] is 0.011 µM.

As to `COc1ccc(C2=NOC3CC(F)CC23)cc1C(=O)N[C@H]1[C@@H](C(=O)Nc2ccc(F)c(C(F)(F)F)c2)[C@H]2CC[C@@H]1/C2=C\C1CC1` (stereo partly drawn) [Example 427, (1R,2S,3R,4R,Z)-7-(cyclopropylmethylene)-N-(4-fluoro-3-(trifluoromethyl)phenyl)-3-(5-(5-fluoro-3a,5,6,6a-tetrahydro-4H-cyclopenta[d]isoxazol-3-yl)-2-methoxybenzamido)bicyclo[2.2.1]heptane-2-carboxamide], the EC50 under setting [1] is 0.054 µM.

As to `CC(F)(F)COc1ccc(C2=NOC3COCC23)cc1C(=O)N[C@@H]1C2CCC(/C2=C/C2CC2)[C@@H]1C(=O)Nc1ccc(F)c(C(F)(F)F)c1` (some centres unmarked) [compound 790], the EC50 under setting [1] amounted to 0.0049 µM.

For the compound `COc1ccc(-c2cc(C(NC(C)=O)C(=O)O)ccc2F)cc1C(=O)N[C@@H]1C2CCC(/C2=C/C2CC2)[C@@H]1C(=O)Nc1ccc(F)c(C(F)(F)F)c1` (some centres unmarked) [Example 182], the EC50 under setting [1] worked out at 0.005 µM.

In the case of `COc1ccc(C2=NOC3(CCCC3)C2)cc1C(=O)N[C@H]1[C@@H](C(=O)Nc2ccc(F)c(C(F)(F)F)c2)[C@H]2CC[C@@H]1/C2=C\C1CC1` [compound 642], the EC50 under setting [1] is 0.219 µM.

In the case of `COc1ccc(-c2cc([C@H](OC(=O)NC3CC3)C(F)(F)F)ccc2F)cc1C(=O)N[C@H]1[C@@H](C(=O)Nc2ccc(F)c(C(F)(F)F)c2)[C@H]2CC[C@@H]1/C2=C\C1CCCC1` [compound 927], under setting [1], the concentration giving a half-maximal response (EC50) was 0.0004 µM.

Consider `COc1cc(C)c(C2=NOC3COCC23)cc1C(=O)N[C@H]1[C@@H](C(=O)Nc2ccc(F)c(C(F)(F)F)c2)[C@H]2CC[C@@H]1/C2=C\C1CC1` (single isomer, unassigned) [compound 686], for which, under setting [1], the EC50 was found to be 0.653 µM.

`COc1ccc(-c2cc(C(=O)O)ccc2F)cc1C(=O)N[C@@H]1C2CCC(/C2=C/C2CC2)[C@@H]1C(=O)NC1CCOCC1` (some centres unmarked) [compound 204]: under setting [1], the EC50 was 3.2 µM.

With `COc1ccc(C2=NO[C@@H]3C[C@@H](CO)CN23)cc1C(=O)N[C@H]1[C@@H](C(=O)Nc2ccc(F)c(C(F)(F)F)c2)[C@H]2CC[C@@H]1/C2=C\C1CC1` [compound 849], the EC50 under setting [1] came out at 0.0027 µM.

As for `COc1ccc(-c2cc(C(=O)O)ccc2F)cc1C(=O)N[C@H]1[C@@H](C(=O)Nc2ccc(F)c(C(F)(F)F)c2)[C@H]2CC[C@@H]1/C2=C\c1ccccc1` [compound 80], the EC50 (cAMP hRXFP1 HEK293 Assay EC50, HEK293 cells stably expressing human RXFP1, 30 min at room temperature) came out at 0.011 µM.

Regarding `COc1ccc(-c2cc(C(C)(C)O)on2)cc1C(=O)N[C@@H]1C2CCC(/C2=C/C2CC2)[C@@H]1C(=O)Nc1ccc(F)c(C(F)(F)F)c1` (some centres unmarked) [compound 425], the EC50 under setting [1] turned out to be 0.019 µM.

Regarding `COc1ccc(C2=NOC3COCC23)cc1C(=O)N[C@H]1[C@@H](C(=O)NCC2(C)COC2)[C@H]2CC[C@@H]1/C2=C\C1CC1` (some centres unmarked) [compound 675], the EC50 under setting [1] came out at 0.485 µM.

As for `COc1ccc(C2=NOC3CC(C(O)C(F)(F)F)CC23)cc1C(=O)N[C@H]1[C@@H](C(=O)Nc2ccc(F)c(C(F)(F)F)c2)[C@H]2CC[C@@H]1/C2=C\C1CC1` (some centres unmarked) [compound 853], the 50% effective concentration (EC50) under setting [1] was determined as 0.0036 µM.

As for `COc1ccc(C2=NO[C@@H]3CC[C@@H](O)[C@H]23)cc1C(=O)N[C@H]1[C@@H](C(=O)Nc2ccc(F)c(C(F)(F)F)c2)[C@H]2CC[C@@H]1/C2=C\C1CC1` (single isomer, unassigned) [compound 655], under setting [1], the concentration for a half-maximal effect (EC50) stood at 0.303 µM.

As for `CONC(=O)OC(c1ccc(F)c(-c2ccc(OC)c(C(=O)N[C@@H]3C4CCC(/C4=C/C4CC4)[C@@H]3C(=O)Nc3ccc(F)c(C(F)(F)F)c3)c2)c1)C(F)(F)F` (some centres unmarked) [compound 214], under setting [1], the EC50 was 0.002 µM.

With `CC=C1C2CCC1[C@H](C(=O)Nc1ccc(F)c(C(F)(F)F)c1)[C@@H]2NC(=O)c1cc(F)c(F)cc1OC` (some centres unmarked) [compound 50], the EC50 under setting [1] stood at 0.15 µM.

As for `COc1ccc(-c2cccc(C3=NOC4CC(O)CC34)c2)cc1C(=O)N[C@H]1[C@@H](C(=O)Nc2ccc(F)c(C(F)(F)F)c2)[C@H]2CC[C@@H]1/C2=C\C1CC1` (some centres unmarked) [compound 902], the EC50 under setting [1] came to 0.0087 µM.

Regarding `COc1ccc(-c2cc([C@H](OC(=O)NC3CC3)C(F)(F)F)ccc2F)cc1C(=O)N[C@H]1[C@@H](C(=O)Nc2ccc(F)c(C(F)(F)F)c2)[C@H]2CC[C@@H]1/C2=C\CCC(F)(F)F` [compound 928], under setting [1], the EC50 amounted to 0.0014 µM.

Regarding `COc1ccc(-c2ccc(C(CC(=O)O)C(F)(F)F)cc2F)cc1C(=O)N[C@H]1[C@@H](C(=O)Nc2ccc(F)c(C(F)(F)F)c2)[C@H]2CC[C@@H]1/C2=C\C1CCCC1` (some centres unmarked) [compound 892], the EC50 under setting [1] was determined as 0.0099 µM.

As for `COc1cc(F)c(F)cc1C(=O)N[C@@H]1C2CCC(/C2=C/c2cccs2)[C@@H]1C(=O)Nc1ccc(F)c(C(F)(F)F)c1` (some centres unmarked) [compound 124], under setting [1], the EC50 was determined as 0.21 µM.

As to `CC(C)=C1C2CCC1[C@H](C(=O)Nc1ccc(F)c(C(F)(F)F)c1)[C@@H]2NC(=O)c1cc(-c2cc(C(=O)O)ccc2F)ccc1N(C)C` (some centres unmarked) [Example 107], under setting [1], the EC50 was found to be 0.18 µM.

For `COc1ccc(-c2cc(C(=O)O)ccc2F)cc1C(=O)N[C@@H]1C2CCC(/C2=C/C2CC2)[C@@H]1C(=O)NC1Cc2ccccc2C1` (some centres unmarked) [compound 308], under setting [1], the EC50 came to 2.39 µM.

As for `CCOC(=O)c1cc2cc(-c3ccc(OC)c(C(=O)N[C@@H]4C5CCC(/C5=C/C(F)(F)F)[C@@H]4C(=O)Nc4ccc(F)c(C(F)(F)F)c4)c3)ccc2[nH]1` (some centres unmarked) [compound 297], the EC50 under setting [1] came to 0.073 µM.

As to `COc1ccc(C2=NC[C@H]3CCCN23)cc1C(=O)N[C@H]1[C@@H](C(=O)Nc2ccc(F)c(C(F)(F)F)c2)[C@H]2CC[C@@H]1/C2=C\C1CC1` [Example 699], under setting [1], the EC50 was found to be 1.03 µM.

Take `COc1ccc(-c2cc(C(OC(=O)Nc3cccc(F)c3)C(F)(F)F)ccc2F)cc1C(=O)N[C@@H]1C2CCC(/C2=C/C2CC2)[C@@H]1C(=O)Nc1ccc(F)c(C(F)(F)F)c1` (some centres unmarked) [compound 228]: the EC50 under setting [1] was 0.003 µM.

With `COc1ccc(C2=NOC(C(C)(O)C(F)(F)F)C2)cc1C(=O)N[C@H]1[C@@H](C(=O)Nc2ccc(F)c(C(F)(F)F)c2)[C@H]2CC[C@@H]1/C2=C\C1CC1` (single isomer, unassigned) [compound 517], the EC50 under setting [1] is 0.018 µM.

Consider `COc1ccc(C2=NOC3CCCC23)cc1C(=O)N[C@@H]1C2CCC(/C2=C/C2CC2)[C@@H]1C(=O)Nc1ccc(F)c(C(F)(F)F)c1` (some centres unmarked) [compound 440], for which the EC50 under setting [1] turned out to be 0.025 µM.

As for `CNC(=O)OC(C(=O)NC)c1ccc(F)c(-c2ccc(OC)c(C(=O)N[C@@H]3C4CCC(/C4=C/C4CC4)[C@@H]3C(=O)Nc3ccc(F)c(C(F)(F)F)c3)c2)c1` (some centres unmarked) [compound 235], under setting [1], the EC50 was determined as 0.001 µM.

For `COc1ccc(C2=NOC3COCC23)cc1C(=O)N[C@H]1[C@@H](C(=O)Nc2ccc(F)c(C(F)(F)F)c2)[C@H]2CC[C@@H]1/C2=C\C1CC1` (stereo partly drawn) [Example 417, (1R,2S,3R,4R,Z)-7-(cyclopropylmethylene)-N-(4-fluoro-3-(trifluoromethyl)phenyl)-3-(2-methoxy-5-(3a,4,6,6a-tetrahydrofuro[3,4-d]isoxazol-3-yl)benzamido)bicyclo[2.2.1]heptane-2-carboxamide], under setting [1], the EC50 was determined as 0.172 µM.

Consider `COc1ccc(-c2cc(C(OC(=O)NC34CC(C3)C4)C(F)(F)F)ccc2F)cc1C(=O)N[C@H]1[C@@H](C(=O)Nc2ccc(F)c(C(F)(F)F)c2)[C@H]2CC[C@@H]1/C2=C\C1CC1` (single isomer, unassigned) [Example 206], for which the EC50 under setting [1] stood at 0.001 µM.

Take `COc1ccc(C2=NOC3C(O)CC(O)C23)cc1C(=O)N[C@H]1[C@@H](C(=O)Nc2ccc(F)c(C(F)(F)F)c2)[C@H]2CC[C@@H]1/C2=C\C1CC1` (single isomer, unassigned) [compound 674]: the EC50 under setting [1] was 0.481 µM.

Regarding `COc1ccc(C2CCOC2)cc1C(=O)N[C@H]1[C@@H](C(=O)Nc2ccc(F)c(C(F)(F)F)c2)[C@H]2CC[C@@H]1/C2=C\C(F)(F)F` (stereo partly drawn) [Example 360, (1R,2S,3R,4R,Z)—N-(4-fluoro-3-(trifluoromethyl)phenyl)-3-(2-methoxy-5-(tetrahydrofuran-3-yl)benzamido)-7-(2,2,2-trifluoroethylidene)bicyclo[2.2.1]heptane-2-carboxamide], the 50% effective concentration (EC50) under setting [1] turned out to be 1.94 µM.

For `COc1ccc(C2=NOC(CC(=O)O)C2)cc1C(=O)N[C@@H]1C2CCC(/C2=C/C2CC2)[C@@H]1C(=O)Nc1ccc(F)c(C(F)(F)F)c1` (some centres unmarked) [compound 391], the EC50 under setting [1] came to 0.049 µM.

On to `COc1ccc(-c2cnc3n2CCC3O)cc1C(=O)N[C@H]1[C@@H](C(=O)Nc2ccc(F)c(C(F)(F)F)c2)[C@H]2CC[C@@H]1/C2=C\C1CC1` (some centres unmarked) [compound 754], for which, under setting [1], the EC50 came out at 0.0036 µM.
